Laboratory results as given in patent US20130252930A1 (BIOMARIN PHARMACEUTICAL INC., priority 2010, published 2013).
Like-named read-outs stand apart in the source and are kept apart here.

Tests used:
[1] = Rat liver microsome stability assay (Biological Example 8a); conditions: liver microsomes, pH 7.4
[2] = target: T1, CYP17 (human testicular microsome) (Homo sapiens, UniProt P05093); test: CYP17 enzymatic assay (% inhibition at 10 nM), version 1 (Biological Example 5); assay type: biochemical
T1 construct: using microsomal fraction from human testis (Celsis Cat #S00110) as the enzyme source; tissue Celsis S00110; host or cells: human testis microsomal fraction
T1 sequence (P05093 1-508): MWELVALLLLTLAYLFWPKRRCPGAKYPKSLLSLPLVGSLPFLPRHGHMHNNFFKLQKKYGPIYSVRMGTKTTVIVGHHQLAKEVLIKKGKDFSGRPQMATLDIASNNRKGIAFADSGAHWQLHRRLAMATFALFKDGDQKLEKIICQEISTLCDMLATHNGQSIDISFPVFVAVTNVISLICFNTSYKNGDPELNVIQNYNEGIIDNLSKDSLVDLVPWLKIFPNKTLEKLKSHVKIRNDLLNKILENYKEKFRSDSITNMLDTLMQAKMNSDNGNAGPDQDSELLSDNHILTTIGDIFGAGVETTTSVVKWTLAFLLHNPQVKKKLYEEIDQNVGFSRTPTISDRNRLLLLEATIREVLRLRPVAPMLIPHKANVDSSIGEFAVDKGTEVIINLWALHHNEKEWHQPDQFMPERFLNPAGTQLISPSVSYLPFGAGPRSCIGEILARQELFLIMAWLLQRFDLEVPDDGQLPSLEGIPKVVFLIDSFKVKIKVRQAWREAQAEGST

[3] = target: T1, CYP17 (human testicular microsome); test: CYP17 enzymatic assay (IC50) (Biological Example 4); assay type: biochemical
[4] = target: T2, Cyp21 enzyme (Human HEK 293-Cyp21 stable transfected cells) (Homo sapiens, UniProt P08686); test: CYP21-HEK293 enzymatic assay (% inhibition at 100 nM) (Biological Example 10); assay type: cell-based; conditions: HEK 293-Cyp21 cells
T2 construct: expressed in transfected cells
T2 sequence (P08686 1-495): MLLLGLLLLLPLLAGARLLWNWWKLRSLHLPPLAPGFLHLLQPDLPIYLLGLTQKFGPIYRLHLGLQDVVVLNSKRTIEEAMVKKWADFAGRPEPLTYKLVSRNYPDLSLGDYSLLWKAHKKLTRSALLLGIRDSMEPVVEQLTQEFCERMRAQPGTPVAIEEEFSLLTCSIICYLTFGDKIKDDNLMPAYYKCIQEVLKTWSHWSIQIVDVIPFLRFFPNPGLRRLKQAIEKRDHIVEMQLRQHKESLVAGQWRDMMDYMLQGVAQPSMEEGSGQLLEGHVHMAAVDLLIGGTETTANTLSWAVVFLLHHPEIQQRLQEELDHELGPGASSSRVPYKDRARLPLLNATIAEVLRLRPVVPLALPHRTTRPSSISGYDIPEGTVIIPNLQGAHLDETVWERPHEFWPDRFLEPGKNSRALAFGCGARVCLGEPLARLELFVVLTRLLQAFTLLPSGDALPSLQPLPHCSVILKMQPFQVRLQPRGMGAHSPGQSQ
Method: Proceeding using methods similar to those described in Biological Example 11, the percent inhibition at 100 nM was measured.
This assay was used to determine compound activity against Cyp21 enzyme. Human HEK 293-Cyp21 stable transfected cells (maintained in complete growth media DMEM+10% FBS, supplemented with 125 ug/mL Hygromycin) were seeded in a 96-well plate at 20,000 cells/well/100 uL in DMEM plus 10% FBS and allowed to attach overnight. The next day, 20 μL medium was carefully removed and 10 μL of 10× pre-made compounds in DMEM+10% FBS+10% methanol was transferred to the wells to final concentrations of 1000, 100, 10, 1, or 0.1 nM. Mock treatment was 1% methanol in growth media and the cells were left at 37° C., 5% CO2 for 5 hr. After the incubation, 10 μL of substrate progesterone (Sigma) was added to the wells to make a final concentration of 10 μM. The cells were incubated the cells at 37° C. for 20 hr. At the end of incubation, 90 μL of conditioned media was removed to measure DOC level by ELISA.
Preparation of the DOC ELISA: 100 μL of coating buffer (0.025M PBS pH 7.4) containing 200 ng/mL DOC-3-carboxymethyloxime-BSA (Steraloids. inc, Cat#3469-000) was added to each well of a 96-well plate and incubated overnight at 4° C. The next day, the plates were washed twice with 250 μl of wash solution (0.015M PBS pH 7.4 containing 0.05% Tween 20). After being washed, the wells were blocked with 250 μL blocking buffer (3% BSA in 0.025M PBS, pH 7.4) at 37° C. for 2 h. The plates were washed again 3 times as before, and then 90 μL of sample /standards (prepared in complete growth media) was added into the appropriate wells followed by 10 μL of antibody solution (1:450 rabbit anti-DOC in 0.6% BSA/PBS). The plates were incubated at room temperature for 2 h on a shaker. The contents of the wells were removed and the plate was washed 4 times. After the final wash, 100 μL of secondary antibody (1:12000 HRP-goat-anti-rabbit IgG conjugate 0.6% BSA/PBS) was added into each well. The plate was incubated at 30° C. for 45 min. The plate was washed again 4 times and 100 μL of TMB substrate solution was added to each well. The plate was incubated at room temperature for 10 min. 100 μL of stop solution was added to each well and the optical density was read at 450 nm.
The mean absorbance value for each sample was used to determine the corresponding concentration from the standard curve. Data was analyzed with “log(antagonist) vs response variable slope” under “non-linear regression analysis” using Prism5 software.

[5] = tested on: rat Cyp11B enzyme (rat adrenal mitochondria); test: CYP11B enzymatic assay (% inhibition at 100 nM) (Biological Example 9); assay type: biochemical; conditions: for Biological Example No. 9: CYP11B percent inhibition at 100 nM: 100 nM compound, cortisol by ELISA; for CYP11B enzymatic assay % inhibition at 100 nM (Biological Example No. 9): compound at 100 nM
Method in brief: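 Sprague Dawley rat adrenal mitochondria were incubated with compound at 100 nM, 0.5 mM NADPH and 0.1 μM 11-deoxycortisol (pH 7.4 Tris buffer) for 60 min at 37 °C. Cortisol was measured by ELISA and corrected by subtracting the no-NADPH background. % inhibition is relative to the no-compound reaction.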

[6] = Human liver microsome stability assay (Biological Example 8b); conditions: liver microsomes, pH 7.4
[7] = target: T1, CYP17 (human testicular microsome); test: CYP17 enzymatic assay (% inhibition at 1 nM) (Biological Example 12); assay type: biochemical; conditions: compound at 1 nM, read-out: CYP17 enzymatic assay % inhibition at 1 nM (Biological Example No. 12)
CYP17 (H295R cells) = target: T3, CYP17 (H295R cells) (Homo sapiens, UniProt P05093); test: CYP17 cellular assay (IC50), testosterone in H295R cells (Biological Example 7); assay type: cell-based; conditions: H295R cells, testosterone; read-out: CYP17 cellular assay IC50 (Biological Example No. 7)
T3 construct: endogenous in cells; host or cells: H295R cells
T3 sequence (P05093 1-508): T1 sequence (P05093 1-508)
Method in brief: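 Testosterone in the medium was quantified by ELISA after 24 h at 37 °C with test compound (final 100, 10, 1, 0.1 nM; serum-free DMEM/F-12, ITS+, 0.1% methanol). The H295R cells had been seeded and grown 24 h beforehand; vehicle wells served as control.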

[8] = 10 nM compound, DHEA by ELISA, read-out: Biological Example No. 5: CYP17 percent inhibition at 10 nM (version 1)
[9] = human testicular microsome, DHEA by ELISA, read-out: Biological Example No. 4: CYP17 enzymatic assay IC50
[10] = 100 nM compound, read-out: Biological Example No. 10: CYP21-HEK293 percent inhibition at 100 nM
[11] = compound at 100 nM, read-out: CYP21-HEK293 enzymatic assay % inhibition at 100 nM (Biological Example No. 10)
[12] = human testicular microsome, read-out: CYP17 enzymatic assay IC50 (Biological Example No. 4)

Row | inhibition at 0.1 µM [4, 11] | Compound | half-life at 1 μM [1] | inhibition at 0.01 µM [2, 8] | IC50 [3, 9] | inhibition at 0.1 µM [4, 10] | Biological Example No. 9: CYP11B percent inhibition at 100 nM [5] | half-life at 1 μM [6] | CYP11B enzymatic assay % inhibition at 100 nM (Biological Example No. 9) [5] | also measured
1 | – | CCCOc1cncc(C2=CC[C@H]3[C@@H]4CCN5CCCCC[C@]5(C)[C@H]4CC[C@]23C)c1 [Compound 46, (11aR,13aS)-11a,13a-dimethyl-1-(5-propoxypyridin-3-yl)-3a,3b,4,5,7,8,9,10,11,11a,11b,12,13,13a-tetradecahydro-3H-azepino[2,1-a]cyclopenta[f]isoquinoline] | 10 to 60 min | 50 to 80% | – | – | – | – | – | –
2 | – | Cc1cncc(C2=CC[C@H]3[C@@H]4CC(O)C5CCCC[C@]5(C)[C@H]4CC[C@]23C)c1 (stereo partly drawn) [Compound 70, (10R,13S)-10,13-dimethyl-17-(5-methylpyridin-3-yl)-2,3,4,5,6,7,8,9,10,11,12,13,14,15-tetradecahydro-1H-cyclopenta[a]phenanthren-6-ol] | 1 to 10 min | – | < 0.011 µM | – | – | – | – | –
3 | – | Cc1cncc(C2=CC[C@H]3[C@@H]4CC(=O)C5CCCC[C@]5(C)[C@H]4CC[C@]23C)c1 (stereo partly drawn) [Compound 71, (10R,13S)-10,13-dimethyl-17-(5-methylpyridin-3-yl)-2,3,4,5,7,8,9,11,12,13,14,15-dodecahydro-1H-cyclopenta[a]phenanthren-6(10H)-one] | 1 to 10 min | – | < 0.011 µM | – | – | – | – | –
4 | – | COc1cncc(C2=CC[C@H]3[C@@H]4CC(=O)C5CCCC[C@]5(C)[C@H]4CC[C@]23C)c1 (stereo partly drawn) [Compound 72, (10R,13S)-17-(5-methoxypyridin-3-yl)-10,13-dimethyl-2,3,4,5,7,8,9,11,12,13,14,15-dodecahydro-1H-cyclopenta[a]phenanthren-6(10H)-one] | 1 to 10 min | – | < 0.011 µM | – | – | – | – | –
5 | – | CN1CC[C@@]2(C)C(=CC1=O)CC[C@H]1C3=CC=C(c4cccnc4)[C@@]3(C)CC[C@@H]12 [Compound 158] | – | > 80% | < 0.011 µM | ≥ 30% | T (T means the compound had a percent inhibition of less than 32% when tested at 100 nM) | 1 to 50 min | – | –
6 | – | C[C@]12CC[C@H]3[C@@H](CC[C@H]4CC(=O)CC[C@@]43C)C1=CC=C2c1cccnc1 [Compound 164, (5S,8R,9S,10S,13S)-10,13-dimethyl-17-(pyridin-3-yl)-4,5,6,7,8,9,10,11,12,13-decahydro-1H-cyclopenta[a]phenanthren-3(2H)-one] | – | > 80% | < 0.011 µM | ≥ 30% | U (U means the compound had a percent inhibition of greater than or equal to 32%) | 1 to 50 min | – | –
7 | – | C[C@]12CC[C@H]3[C@@H](CC[C@H]4CC(=O)CC[C@@]43C)C1=CC=C2n1ccnc1 [Compound 171] | – | > 80% | – | < 30% | T (T means the compound had a percent inhibition of less than 32% when tested at 100 nM) | 1 to 50 min | – | IC50 [3]: < 0.011 µM
8 | ≥ 30% | C[C@]12CC[C@H]3[C@@H](CC[C@H]4CC(=O)NCC[C@@]43C)C1=CC=C2n1ccnc1 [Compound 447, (5aS,5bS,7aS,10bR,12aS)-8-(1H-imidazol-1-yl)-5a,7a-dimethyl-3,4,5,5a,5b,6,7,7a,10b,11,12,12a-dodecahydrocyclopenta[5,6]naphtho[1,2-d]azepin-2(1H)-one] | – | – | – | – | – | 1 to 50 min | na (“na” means the compound was not active under the conditions tested) | IC50 [3, 12]: < 0.011 µM; inhibition at 0.01 µM ([2]; compound at 10 nM, read-out: CYP17 enzymatic assay % inhibition at 10 nM (Biological Example No. 5)): > 80%
9 | < 30% | Cc1ccncc1C1=CC[C@H]2[C@@H]3CC[C@H]4CC(=O)NCC[C@]4(C)[C@H]3CC[C@]12C [Compound 462, (5aS,5bS,7aS,10aS,10bR,12aS)-5a,7a-dimethyl-8-(4-methylpyridin-3-yl)-3,4,5,5a,5b,6,7,7a,10,10a,10b,11,12,12a-tetradecahydrocyclopenta[5,6]naphtho[1,2-d]azepin-2(1H)-one] | – | – | – | – | – | – | T (T means the compound had a percent inhibition of less than 32% when tested at 100 nM) | inhibition at 0.001 µM [7]: 10 to 50%; IC50 (CYP17 (H295R cells)): < 0.015 µM

Row | Compound | inhibition at 0.1 µM [4, 11] | half-life at 1 μM [1] | inhibition at 0.01 µM [2, 8] | IC50 [3, 9] | inhibition at 0.1 µM [4, 10] | Biological Example No. 9: CYP11B percent inhibition at 100 nM [5] | half-life at 1 μM [6] | CYP11B enzymatic assay % inhibition at 100 nM (Biological Example No. 9) [5] | also measured
10 | C[C@]12CCC(NC(=O)C3CC3)CC1=CCC1C2CC[C@]2(C)C(n3ccnc3)=CCC12 (stereo partly drawn) [Compound 238, N-((10R,13S)-17-(1H-imidazol-1-yl)-10,13-dimethyl-2,3,4,7,8,9,10,11,12,13,14,15-dodecahydro-1H-cyclopenta[a]phenanthren-3-yl)cyclopropanecarboxamide] | < 30% | – | – | – | – | – | 1 to 50 min | U (U means the compound had a percent inhibition of greater than or equal to 32%) | IC50 [3, 12]: < 0.011 µM; inhibition at 0.001 µM [7]: > 50%
